Assay results reported in patent US11286281B2, “Homodetic cyclic peptides targeting alpha-4-beta-7 integrin” (priority 2017, dated 2022).
Values joined by “and” are separate entries in the source; they are usually repeats but may differ in a detail not shown here. Identical values can stand only once. Like-named read-outs stand apart in the source and are kept apart here. Numbered stars: 1 amine (or outer) side, 2 acyl side, 3 side chain; on linkers, the order of the positions; unused ones are H or OH. Square brackets hold non-standard residues; d marks the D form. Peptide text beside a SMILES is read from it. X1 = O=C(c1ccc(-c2ccc(N3CCNCC3)cc2)c(CN[*:1])c1)[*:2]

How the values were obtained:
integrin α4β7 = target: T1, integrin α4β7 (Homo sapiens, UniProt P13612+P26010); assay: Whole blood ligand displacement (receptor occupancy): biotinylated rhMAdCAM-1 binding to α4β7+ Th memory cells; format: cell-based; settings: for selectivity of RO versus α4β1 (fold difference in IC50 between assays): whole blood, α4β7 versus α4β1
T1 sequence (P13612 34-1032): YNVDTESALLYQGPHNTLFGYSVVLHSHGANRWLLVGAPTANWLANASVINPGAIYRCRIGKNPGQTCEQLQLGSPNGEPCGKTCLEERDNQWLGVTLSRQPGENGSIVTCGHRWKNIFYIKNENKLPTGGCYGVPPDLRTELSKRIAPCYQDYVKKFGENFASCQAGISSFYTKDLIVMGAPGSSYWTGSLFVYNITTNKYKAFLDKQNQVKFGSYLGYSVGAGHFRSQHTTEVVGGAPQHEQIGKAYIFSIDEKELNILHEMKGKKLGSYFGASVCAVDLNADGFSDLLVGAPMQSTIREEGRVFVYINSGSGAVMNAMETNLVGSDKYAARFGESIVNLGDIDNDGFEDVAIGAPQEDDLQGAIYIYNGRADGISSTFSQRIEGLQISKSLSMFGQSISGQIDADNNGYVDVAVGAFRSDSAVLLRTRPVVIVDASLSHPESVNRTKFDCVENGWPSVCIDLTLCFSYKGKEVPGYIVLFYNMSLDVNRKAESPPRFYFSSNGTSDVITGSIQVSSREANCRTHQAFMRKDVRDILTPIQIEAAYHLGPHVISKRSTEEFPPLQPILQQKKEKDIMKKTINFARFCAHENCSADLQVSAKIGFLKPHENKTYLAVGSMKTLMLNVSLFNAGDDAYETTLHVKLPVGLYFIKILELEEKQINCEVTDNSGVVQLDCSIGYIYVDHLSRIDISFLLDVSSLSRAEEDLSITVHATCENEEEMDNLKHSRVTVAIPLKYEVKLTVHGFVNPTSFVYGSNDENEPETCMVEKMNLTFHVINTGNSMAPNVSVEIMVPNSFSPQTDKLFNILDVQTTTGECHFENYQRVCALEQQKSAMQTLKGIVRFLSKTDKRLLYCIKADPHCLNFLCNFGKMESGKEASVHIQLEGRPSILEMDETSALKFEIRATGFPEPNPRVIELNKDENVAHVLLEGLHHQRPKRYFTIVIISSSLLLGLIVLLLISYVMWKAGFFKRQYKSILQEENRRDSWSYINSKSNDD
T1 sequence (P26010 20-798): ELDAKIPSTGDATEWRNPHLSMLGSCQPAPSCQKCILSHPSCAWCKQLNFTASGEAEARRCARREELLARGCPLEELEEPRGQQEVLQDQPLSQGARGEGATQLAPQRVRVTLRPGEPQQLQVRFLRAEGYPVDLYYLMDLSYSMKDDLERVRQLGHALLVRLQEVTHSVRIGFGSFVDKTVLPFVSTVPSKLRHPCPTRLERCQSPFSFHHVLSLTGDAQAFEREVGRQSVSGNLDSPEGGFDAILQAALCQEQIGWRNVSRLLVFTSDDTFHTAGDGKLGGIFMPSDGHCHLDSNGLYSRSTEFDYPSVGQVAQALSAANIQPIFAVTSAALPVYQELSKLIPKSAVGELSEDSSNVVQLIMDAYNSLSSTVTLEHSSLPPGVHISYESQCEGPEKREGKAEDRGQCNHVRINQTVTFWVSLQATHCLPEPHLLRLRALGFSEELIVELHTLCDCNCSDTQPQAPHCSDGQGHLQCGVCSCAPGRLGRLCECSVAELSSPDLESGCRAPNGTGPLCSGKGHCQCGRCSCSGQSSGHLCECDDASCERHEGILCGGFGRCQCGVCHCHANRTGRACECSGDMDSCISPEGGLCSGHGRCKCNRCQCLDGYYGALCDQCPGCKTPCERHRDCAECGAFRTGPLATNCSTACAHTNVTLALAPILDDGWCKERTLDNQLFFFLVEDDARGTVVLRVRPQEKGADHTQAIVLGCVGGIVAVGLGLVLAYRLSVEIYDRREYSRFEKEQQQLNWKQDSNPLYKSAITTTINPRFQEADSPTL
Experimental: Receptor occupancy (RO) in primary cells was determined by measuring the amount of biotinylated human recombinant MAdCAM-1-FC or human recombinant VCAM-1-Fc bound to selected cell populations using flow cytometry. Human recombinant MAdCAM-1-FC or human recombinant VCAM-1-FC (R&D systems) were biotinylated using commercially available reagents and protocol (Pierce). Whole blood was collected from human donors in sodium heparin tubes. […] Cells were washed twice with 1 mL of 1×DPBS calcium magnesium free(CMF) (ThermoFisher Scientific) and resuspended in 100 μL of DPBS CMF. […] Cells were washed with 1 mL stain buffer-FBS (BD Biosciences) and resuspended in 100 μl stain Buffer-FBS (BD Biosciences) containing 4 mM MnCl2. […] Cells were then washed with 1 mL stain buffer-FBS and resuspended in 100 μl stain buffer-FBS. The cells were incubated in the dark for 30 minutes at room temperature with 1 μl Streptavidin APC (Biolegend 0.2 mg/ml) and a panel of antibodies for the detection of memory T helper a4b7-positive cells subset. And amount of 5.0 μl each of the following antibodies were used; CD45 FITC (BioLegend 200 μg/ml), CD29 APC Cy7 (BioLegend 100 μg/ml), Integrin beta7 PE, (BioLegend concentration 50 μg/mL), CD49d […] (BioLegend 50 μg/mL), CD3 […] (BioLegend 30 μg/mL), CD4 PECy7 (BioLegend 100 μg/mL), CD45RO PerCP, BioLegend 200 μg/mL). The cells were then washed with stain-buffer-FBS and resuspended in 150 μL stain buffer-FBS for acquisition on the flow cytometer (BD FACSCantoTM flow cytometer and […] software). FACS data was acquire by electronic gating on the basis of forward versus side scatter, The cytometer was set to collect 20,000 events in each tube. Cell population were determined using the following markers, CD45+, CD3+, CD4+, CD45RO+, CD49d+, integrin β7, biotinylated ligands.

integrin α4β1 = integrin α4β1 (Homo sapiens, UniProt P05556+P13612); assay: Whole blood ligand displacement (receptor occupancy): biotinylated rhVCAM-1 binding to α4β7-negative Th memory cells; format: cell-based; settings: read-out: VCAM Competition IC50 (receptor occupancy)
Experimental: Receptor occupancy (RO) in primary cells was determined by measuring the amount of biotinylated human recombinant MAdCAM-1-FC or human recombinant VCAM-1-Fc bound to selected cell populations using flow cytometry. Human recombinant MAdCAM-1-FC or human recombinant VCAM-1-FC (R&D systems) were biotinylated using commercially available reagents and protocol (Pierce). Whole blood was collected from human donors in sodium heparin tubes. […] Cells were washed twice with 1 mL of 1×DPBS calcium magnesium free(CMF) (ThermoFisher Scientific) and resuspended in 100 μL of DPBS CMF. […] Cells were washed with 1 mL stain buffer-FBS (BD Biosciences) and resuspended in 100 μl stain Buffer-FBS (BD Biosciences) containing 4 mM MnCl2. […] Cells were then washed with 1 mL stain buffer-FBS and resuspended in 100 μl stain buffer-FBS. The cells were incubated in the dark for 30 minutes at room temperature with 1 μl Streptavidin APC (Biolegend 0.2 mg/ml) and a panel of antibodies for the detection of memory T helper a4b7-positive cells subset. And amount of 5.0 μl each of the following antibodies were used; CD45 FITC (BioLegend 200 μg/ml), CD29 APC Cy7 (BioLegend 100 μg/ml), Integrin beta7 PE, (BioLegend concentration 50 μg/mL), CD49d […] (BioLegend 50 μg/mL), CD3 […] […] Cell population were determined using the following markers, CD45+, CD3+, CD4+, CD45RO+, CD49d+, integrin β7, biotinylated ligands.

[1] = α4β7 Th memory cells, human whole blood, read-out: MAdCAM-1 Competition IC50 (receptor occupancy)

integrin α4β1, sequence (P05556 21-798, one chain of several): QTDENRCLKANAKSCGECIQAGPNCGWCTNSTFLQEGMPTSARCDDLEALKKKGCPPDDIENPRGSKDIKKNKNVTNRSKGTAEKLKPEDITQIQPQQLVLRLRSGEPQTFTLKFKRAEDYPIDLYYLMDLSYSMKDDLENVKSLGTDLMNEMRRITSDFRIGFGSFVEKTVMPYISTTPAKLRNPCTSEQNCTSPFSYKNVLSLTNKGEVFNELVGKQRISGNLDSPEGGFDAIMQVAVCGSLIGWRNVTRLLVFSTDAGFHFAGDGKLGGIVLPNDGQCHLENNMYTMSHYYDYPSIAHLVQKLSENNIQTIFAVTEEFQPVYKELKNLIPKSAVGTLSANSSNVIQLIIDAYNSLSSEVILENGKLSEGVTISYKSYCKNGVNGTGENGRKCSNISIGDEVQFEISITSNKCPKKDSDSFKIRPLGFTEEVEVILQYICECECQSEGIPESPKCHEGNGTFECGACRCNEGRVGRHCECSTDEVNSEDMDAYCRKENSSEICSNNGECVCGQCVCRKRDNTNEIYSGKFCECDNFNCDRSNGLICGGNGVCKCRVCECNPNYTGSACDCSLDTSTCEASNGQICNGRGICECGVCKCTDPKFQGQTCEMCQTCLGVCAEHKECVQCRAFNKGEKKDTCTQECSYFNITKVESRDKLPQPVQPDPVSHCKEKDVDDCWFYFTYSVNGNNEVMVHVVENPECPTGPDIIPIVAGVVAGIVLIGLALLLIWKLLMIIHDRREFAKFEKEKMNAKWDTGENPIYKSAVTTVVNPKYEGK

Row | Compound | competition with MAdCAM-1 on α4β7-positive primary cells, result in words (integrin α4β7; human whole blood) | IC50 (integrin α4β7; human whole blood, read-out: α4β7 RO IC50) [nM] | selectivity of RO versus α4β1 (fold difference in IC50 between assays) (integrin α4β7) | IC50 (integrin α4β7; [1]) | IC50 (integrin α4β1) [nM] | α4β7 RO IC50 (integrin α4β7; human whole blood)
1 | CC(C)C[C@@H]1NC(=O)c2ccc(-c3ccc(N4CCNCC4)cc3)c(c2)CNC(=O)[C@@H]2CCCN2C(=O)[C@H](C)NC(=O)[C@H]([C@@H](C)O)NC(=O)[C@H](CC(=O)O)NC1=O [Compound 8] (cyclo(P[X1]LDTA)) | relatively weak concentration-response curve | > 4000 | no selectivity | > 4000 nM | > 4000 | –
2 | CC(C)C[C@@H]1NC(=O)c2ccc(-c3ccc(N4CCN(Cc5cccc(CN6CCN(c7ccc(-c8ccc9cc8CNC(=O)[C@@H]8CCCN8C(=O)[C@H](C)NC(=O)[C@H]([C@@H](C)O)NC(=O)[C@H](CC(=O)O)NC(=O)[C@H](CC(C)C)NC9=O)cc7)CC6)c5)CC4)cc3)c(c2)CNC(=O)[C@@H]2CCCN2C(=O)[C@H](C)NC(=O)[C@H]([C@@H](C)O)NC(=O)[C@H](CC(=O)O)NC1=O [Compound 18] | – | – | selectivity versus α4β1 | 25 nM and 24.7 nM | 123 | sub-micromolar
